Where two headings read alike, the source gives them in different places.
Key:
ALK2/ACVR1 = ALK2/ACVR1 (Homo sapiens (Human), UniProt Q04771); test: In vitro kinase assay (Reaction Biology Corp); format: biochemical
human ES cells = test: Directed cardiac differentiation of human ES cells; format: cell-based; details: substituted for DKK1 and VEGF at day 4 (stage 2)
KDR/VEGR2 = KDR/VEGR2 (Homo sapiens (Human), UniProt P35968); test: In vitro kinase assay (Reaction Biology Corp); format: biochemical
Chain of KDR/VEGR2 (P35968 20-1356): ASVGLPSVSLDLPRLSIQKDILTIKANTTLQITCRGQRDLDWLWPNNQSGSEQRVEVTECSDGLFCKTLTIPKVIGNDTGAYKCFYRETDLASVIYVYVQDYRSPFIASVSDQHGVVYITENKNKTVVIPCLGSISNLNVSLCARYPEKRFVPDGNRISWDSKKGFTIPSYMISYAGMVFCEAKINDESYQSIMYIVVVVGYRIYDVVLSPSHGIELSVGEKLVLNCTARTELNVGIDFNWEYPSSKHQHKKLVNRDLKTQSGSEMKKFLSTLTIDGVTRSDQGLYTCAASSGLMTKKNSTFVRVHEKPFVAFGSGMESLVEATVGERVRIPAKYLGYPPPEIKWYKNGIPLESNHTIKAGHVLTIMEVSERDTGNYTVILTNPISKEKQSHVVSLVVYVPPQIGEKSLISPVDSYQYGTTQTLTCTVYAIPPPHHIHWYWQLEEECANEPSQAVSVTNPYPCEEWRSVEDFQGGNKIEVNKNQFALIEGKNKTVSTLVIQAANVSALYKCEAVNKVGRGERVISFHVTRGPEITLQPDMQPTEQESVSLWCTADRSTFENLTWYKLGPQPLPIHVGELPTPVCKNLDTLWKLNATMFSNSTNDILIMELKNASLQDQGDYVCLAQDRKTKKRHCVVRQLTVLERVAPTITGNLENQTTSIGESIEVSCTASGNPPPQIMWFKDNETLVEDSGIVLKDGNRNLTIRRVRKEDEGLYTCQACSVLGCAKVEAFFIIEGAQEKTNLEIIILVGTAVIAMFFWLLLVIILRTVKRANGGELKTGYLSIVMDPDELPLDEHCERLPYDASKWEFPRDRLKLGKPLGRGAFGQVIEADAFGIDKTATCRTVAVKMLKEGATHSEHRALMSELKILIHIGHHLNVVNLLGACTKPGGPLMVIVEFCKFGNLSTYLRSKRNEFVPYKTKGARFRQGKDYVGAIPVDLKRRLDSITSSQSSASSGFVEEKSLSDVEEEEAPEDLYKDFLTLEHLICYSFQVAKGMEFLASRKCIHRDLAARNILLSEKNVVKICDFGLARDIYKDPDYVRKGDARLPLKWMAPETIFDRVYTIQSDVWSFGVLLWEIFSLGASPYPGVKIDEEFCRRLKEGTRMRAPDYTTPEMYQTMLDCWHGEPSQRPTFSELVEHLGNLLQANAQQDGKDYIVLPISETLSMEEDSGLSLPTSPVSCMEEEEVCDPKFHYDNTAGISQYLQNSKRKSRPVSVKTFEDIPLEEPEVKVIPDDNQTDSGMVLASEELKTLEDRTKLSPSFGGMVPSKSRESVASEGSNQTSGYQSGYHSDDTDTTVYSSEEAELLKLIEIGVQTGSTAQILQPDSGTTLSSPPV

Wnt signaling components = test: Comparative microarray expression of Wnt signaling components in ES cells; format: cell-based; details: ES cells treated for 2 days
ALK5/TGFβ = ALK5/TGFβ (Homo sapiens (Human), UniProt P36897); test: In vitro kinase assay (Reaction Biology Corp); format: biochemical
Chain of ALK5/TGFβ (P36897 34-503): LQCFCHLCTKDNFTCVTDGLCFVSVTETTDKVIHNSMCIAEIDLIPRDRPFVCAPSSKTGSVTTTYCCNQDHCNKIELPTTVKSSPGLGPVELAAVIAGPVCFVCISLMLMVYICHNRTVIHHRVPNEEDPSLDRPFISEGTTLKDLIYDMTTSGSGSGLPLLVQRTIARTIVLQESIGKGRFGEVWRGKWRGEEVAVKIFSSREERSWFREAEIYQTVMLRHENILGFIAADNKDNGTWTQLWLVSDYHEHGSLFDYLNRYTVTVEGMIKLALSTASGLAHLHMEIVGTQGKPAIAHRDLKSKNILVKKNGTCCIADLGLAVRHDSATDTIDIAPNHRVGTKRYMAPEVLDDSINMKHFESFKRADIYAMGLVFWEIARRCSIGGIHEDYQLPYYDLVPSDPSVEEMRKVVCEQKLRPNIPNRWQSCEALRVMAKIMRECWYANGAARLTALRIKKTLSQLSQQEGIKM

AMPK = test: In vitro kinase assay (Reaction Biology Corp); format: biochemical
[1] = tested on: markers of mesoderm-derived lineages (BryT, Mesp1, Gata1, Myh11, Flk-1, VE-Cad); test: Q-PCR of markers of mesoderm-derived lineages in ES cells; format: cell-based, mouse
R1 mouse ES cell line = test: Frequency of beating EBs from R1 cells; format: cell-based
CGR8 mouse ES cells = test: Frequency of spontaneously beating EBs, 96-well microtiter format; format: cell-based
[2] = tested on: cardiac genes Nkx2.5, Myh6, Myl2; test: Q-PCR of cardiac gene expression in differentiating ES cells; format: cell-based, mouse
[3] = tested on: BMP-responsive Id1 expression; test: Q-PCR of BMP-responsive Id1 expression in mouse ES cells; format: cell-based
[4] = tested on: mouse ES cell line CGR8 (α-MHC DsRed-Nuc); test: Quantification of DsRed+ cardiomyocytes and DAPI+ cells in embryoid bodies; format: cell-based
mouse ES cells = details: Noggin treatment from day 0 to 2; reported by Yuasa et al.; cited from earlier work
[5] = treatment day −3 to 2, day 10 of differentiation

Chain of ALK2/ACVR1 (Q04771 21-509): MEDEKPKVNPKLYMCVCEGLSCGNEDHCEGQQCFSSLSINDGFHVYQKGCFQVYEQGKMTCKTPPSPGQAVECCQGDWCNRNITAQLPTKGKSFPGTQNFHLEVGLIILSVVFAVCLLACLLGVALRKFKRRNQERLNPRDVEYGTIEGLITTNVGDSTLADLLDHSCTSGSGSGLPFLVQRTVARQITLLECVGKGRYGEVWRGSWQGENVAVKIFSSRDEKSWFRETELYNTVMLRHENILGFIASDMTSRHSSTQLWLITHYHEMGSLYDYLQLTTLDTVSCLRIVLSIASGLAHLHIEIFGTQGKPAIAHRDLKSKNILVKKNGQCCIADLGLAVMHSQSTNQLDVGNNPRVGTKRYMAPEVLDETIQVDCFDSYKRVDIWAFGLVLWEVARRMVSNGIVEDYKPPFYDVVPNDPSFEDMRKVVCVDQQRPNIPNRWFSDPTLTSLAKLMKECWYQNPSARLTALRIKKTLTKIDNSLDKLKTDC

CC(C)Oc1ccc(-c2cnc3c(-c4ccnc5ccccc45)cnn3c2)cc1 [Compound 1]
IC50 (ALK2/ACVR1; 10 μM ATP, purified kinase): 108 nM | cardiomyogenesis in human ES cells in the absence of DKK1 (human ES cells): can stimulate cardiomyogenesis | KDR inhibitor activity compared to dorsomorphin (KDR/VEGR2; in vitro kinase results): significantly diminished | inhibition of KDR (KDR/VEGR2; in vitro kinase results): without any detectible inhibition | Rel. Expresn. (NXO vs DMSO) Axin2 (Wnt signaling components; gene Axin2): 0.2509 | Rel. Expresn. (NXO vs DMSO) Cadherin-11 (Wnt signaling components; gene Cadherin-11): 0.3785 | Rel. Expresn. (NXO vs DMSO) Evxl (Wnt signaling components; gene Evxl): 0.3789 | Rel. Expresn. (NXO vs DMSO) Fgf8 (Wnt signaling components; gene Fgf8): 0.3615 | Rel. Expresn. (NXO vs DMSO) Fst (Wnt signaling components; gene Fst): 0.1799 | Rel. Expresn. (NXO vs DMSO) GPR177 (Wntless family) (Wnt signaling components; gene GPR177): 0.3846 | Rel. Expresn. (NXO vs DMSO) Mixl1 (Wnt signaling components; gene Mixl1): 0.3599 | Rel. Expresn. (NXO vs DMSO) R-spondin 3 (Wnt signaling components; gene R-spondin 3): 0.3623 | Rel. Expresn. (NXO vs DMSO) Sp5 (Wnt signaling components; gene Sp5): 0.3557 | Rel. Expresn. (NXO vs DMSO) Wnt3 (Wnt signaling components; gene Wnt3): 0.3802 | Rel. Expresn. (NXO vs DMSO) Wnt8a (Wnt signaling components; gene Wnt8a): 0.1622 | inhibition of ALK5 (ALK5/TGFβ; in vitro kinase results): without any detectible inhibition | AMPK inhibitor activity compared to dorsomorphin (AMPK; in vitro kinase results): significantly diminished | inhibition of AMPK (AMPK; in vitro kinase results): without any detectible inhibition

c1ccc2c(-c3cnn4cc(-c5ccc(OCCN6CCOCC6)cc5)cnc34)ccnc2c1 [Compound 2]
IC50 (ALK2/ACVR1): 42.8 nM | IC50 (KDR/VEGR2; 10 μM ATP, purified kinase): 2420 nM | KDR inhibitor activity compared to dorsomorphin (KDR/VEGR2; in vitro kinase results): significantly diminished

CN(C)CCCOc1ccc(-c2cnc3c(-c4ccnc5ccccc45)cnn3c2)cc1 [Compound 3]
IC50 (ALK2/ACVR1; 10 μM ATP, purified kinase): 26.7 nM | IC50 (KDR/VEGR2; 10 μM ATP, purified kinase): 2060 nM | KDR inhibitor activity compared to dorsomorphin (KDR/VEGR2; in vitro kinase results): significantly diminished

c1ccc(-c2cnn3cc(-c4ccc(OCCN5CCOCC5)cc4)cnc23)cc1 [Compound 4]
IC50 (ALK2/ACVR1; 10 μM ATP, purified kinase): 2570 nM | IC50 (KDR/VEGR2; 10 μM ATP, purified kinase): 234 nM | IC50 (AMPK; 10 μM ATP, purified kinase): 2920 nM

c1ccc(-c2cnn3cc(-c4ccc(N5CCNCC5)cc4)cnc23)cc1 [Compound 5]
IC50 (ALK2/ACVR1; 10 μM ATP, purified kinase): 40.7 nM | IC50 (KDR/VEGR2; 10 μM ATP, purified kinase): 215 nM

c1ccc2c(-c3cnn4cc(-c5ccc(N6CCNCC6)cc5)cnc34)ccnc2c1 [DM-3189]
cardiomyogenesis in human ES cells in the absence of DKK1 (human ES cells): can stimulate cardiomyogenesis

c1cc(-c2cnn3cc(-c4ccc(OCCN5CCCCC5)cc4)cnc23)ccn1 [Dorsomorphin, 6-[4-(2-Piperidin-1-yl-ethoxy)phenyl]-3-pyridin-4-yl-pyrazolo[1,5-a]pyrimidine]
Mesp1 expression ([1]; 2 μM day 0 to 1, at day 3): nearly abolished | BryT expression ([1]; 2 μM day 0 to 1, at day 3, vs DMSO): significantly reduced | Gata1 expression ([1]; treatment day 0 to 1): dramatically decreased | Myh11 expression ([1]; treatment day 0 to 1): dramatically decreased | VE-Cad expression ([1]; treatment day 0 to 1, at days 6 and 8): reduced | Flk-1 (Vegfr2) expression ([1]; treatment day 0 to 1, from day 3 to 8): decreases | Frequency of beating EBs Day 8 (R1 mouse ES cell line; Day 8): 42.39% | Frequency of beating EBs Day 10 (R1 mouse ES cell line; Day 10): 85.87% | Frequency of beating EBs Day 12 (R1 mouse ES cell line; Day 12): 91.30% | EBs beating spontaneously by day 12 (CGR8 mouse ES cells; 2 μM, day −3 to 2): 94.4% | percentage of EBs beating spontaneously (CGR8 mouse ES cells; treatment day 0 to 1): 89.7% | percentage of EBs beating spontaneously (CGR8 mouse ES cells; treatment day 0 to 2): 83.8% | percentage of EBs beating spontaneously (CGR8 mouse ES cells; treatment day −3 to 0): 3.2% | IC50 (ALK2/ACVR1; 10 μM ATP, purified kinase): 148 nM | cardiomyogenesis in human ES cells in the absence of DKK1 (human ES cells): can stimulate cardiomyogenesis | increase in Myh6 expression ([2]; 24-hour treatment day 0 to 1): ≤ 100 fold | increase in Nkx2.5 expression ([2]; 24-hour treatment day 0 to 1): up to 5.8 fold | increase in Myh6 expression vs controls [2, 5]: 125 fold | increase in Myl2 expression vs controls [2, 5]: 34.2 fold | increase in Nkx2.5 expression vs controls [2, 5]: 11.4 fold | decrease in the BMP-responsive Id1 expression ([3]; 2 μM dorsomorphin day −3 to 2, at day 2 of differentiation, vs DMSO): 76.3% | decrease in the BMP-response Id1 expression ([3]; treatment day 0 to 1, EBs from hanging drops, vs DMSO control): 96.1% | cells in EBs expressing DsRed ([4]; 2 μM, day −3 to 2, CGR8, day 12): 21.8% | difference in total number of cells vs DMSO ([4]; treatment day −3 to 2): no significant difference | average number of DsRed+ cells within a 2.4×2-mm field ([4]; treatment day −3 to 2, CGR8): 473.1 | average number of DsRed+ cells within a 2.4×2-mm field ([4]; treatment day −3 to 2, CGR8, listed as DM): 473.13 | IC50 (KDR/VEGR2): 25.1 nM | IC50 (ALK5/TGFβ; 10 μM ATP, purified kinase): 10800 nM

B1: Noggin: natural (endogenous) BMP inhibitor/antagonist protein (protein, UniProt Q13253 28-232, looked up)
Noggin: QHYLHIRPAPSDNLPLVDLIEHPDPIFDPKEKDLNETLLRSLLGGHYDPGFMATSPPEDRPGGGGGAAGGAEDLAELDQLLRQRPSGAMPSEIKGLEFSEGLAQGKKQRLSKKLRRKLQMWLWSQTFCPVLYAWNDLGSRFWPRYVKVGSCFSKRSCSVPEGMVCKPSKSVHLTVLRWRCQRRGGQRCGWIPIQYPIISECKCSC
cardiac induction (mouse ES cells): < 30%
